Experimental data reported in patent US20250032423A1, “HERBAL BIOACTIVES BASED IMMUNOSTIMULANT FORMULATION FOR POULTRY BIRDS & CATTLE AND PREPARATION THEREOF” (Edhas Technologies Inc., priority 2023, published 2025).

Columns and labels:
[1] = DPPH radical scavenging assay
Pseudomonas aeruginosa = assay: MIC and fractional inhibitory concentration index (FICI) against Pseudomonas aeruginosa
[2] = ABTS radical scavenging assay

Compound: O=C1O[C@H]([C@@H](O)CO)C(O)=C1O [Ascorbic acid]
- IC50 (DPPH) [1]: 10 ppm
- % Inhibition (DPPH scavenging) ([1]; 10 ppm): 58.80%
- % Inhibition (DPPH scavenging) ([1]; 25 ppm): 64.65%
- % Inhibition (DPPH scavenging) ([1]; 50 ppm): 66.42%
- % Inhibition (DPPH scavenging) ([1]; 100 ppm): 71.18%
- % Inhibition (DPPH scavenging) ([1]; 250 ppm): 87.60%
- % Inhibition (DPPH scavenging) ([1]; 500 ppm): 90.65%

Compound: COc1cc(/C=C/C(=O)CC(=O)/C=C/c2ccc(O)c(OC)c2)ccc1O [Curcumin]
- MIC (Pseudomonas aeruginosa): 8100 µg/mL

Compound: Cc1c(C)c2c(c(C)c1O)CCC(C)(C(=O)O)O2 (stereo not drawn) [Trolox]
- IC50 (ABTS) [2]: 10 ppm
- % Inhibition (ABTS scavenging) ([2]; 10 ppm): 54.48%
- % Inhibition (ABTS scavenging) ([2]; 25 ppm): 63.01%
- % Inhibition (ABTS scavenging) ([2]; 50 ppm): 73.1%
- % Inhibition (ABTS scavenging) ([2]; 100 ppm): 86.71%
- % Inhibition (ABTS scavenging) ([2]; 250 ppm): 89.12%
- % Inhibition (ABTS scavenging) ([2]; 500 ppm): 94.08%
- % Inhibition (ABTS scavenging) ([2]; 1000 ppm): 99.24%

Compound: Cc1ccc(C(C)C)c(O)c1 [Thymol]
- MIC (Pseudomonas aeruginosa): 9200 µg/mL

Compound: C=CCc1ccc(O)c(OC)c1 [Eugenol]
- MIC (Pseudomonas aeruginosa): 10100 µg/mL
